This is an account of results in patent US6087379A, “Cyclic amine derivatives” (Sankyo Company, Limited, priority 1996, dated 2000).

For one experiment, the system named is platelet aggregation. In words: Test 2: Antiaggregatory Action in Rats (ex vivo platelet aggregation in citrated blood, ADP or collagen). The conditions noted are these: Rattus norvegicus, oral, 4 hours before, female SD rats, induced by ADP or collagen (which one not given). The method, then:
Antiaggregatory Action in Rats
Groups of 4 female SD rats (Charles River Japan Inc.) were used in the experiment Test compound suspended in 5% gum arabic solution was orally administered to rats 4 hours before the experiment. Control rats received 5% gum farabic solution. Platelet aggregation was measured according to the method of P. Lumley and P. P. A. Humphrey (J. Pharmacol. Methods, 6, 153-166 (1981)) with a slight modification. Blood (5.4 ml) was collected from the abdominal aorta of anesthetized rats using 3.8% (w/v) sodium citrate solution (0.6 ml) as an anticoagulant. An aliquot of citrated blood (1.2 ml) added to the cuvette was stirred (1000 rpm) at 37° C. Two minutes later, blood (0.3 ml) was taken from the cuvette, and the number of platelets was measured by an automatic hematology analyzer (E-4000, Toa Iyo Denshi), which was designated as the pre-aggregation number of platelets. To the remaining blood (0.9 ml) in the cuvette were added 0.1 ml of 0.05 mM adenosine-5'-diphosphate (ADP) or 0.06 mg/ml collagen to induce platelet aggregation. Two minutes after the addition of ADP or 4 minutes after the addition of collagen, blood (0.3 ml) was taken from the cuvette, and the number of platelets was measured, which was designated as the post-aggregation number of platelets. Platelet aggregation (%) was determined by the following equation:
100×(pre-aggregation number of platelets-post-aggregation number of
platelets)/pre-aggregation number of platelets
Antiaggregatory action of the test compound was determined comparing platelet aggregation of test compound-treated rats to that of control rats (without administration of test compound).

For another experiment, the system named is male ICR mice. In words: Test 1: Prolongation of Bleeding Time in Mice. The experiment is classed as in vivo, mouse (ICR). The conditions noted are these: oral, 3 days (48, 24 and 4 hours before), ratio test compound-treated to control, cut-off 300 seconds. The procedure:
Prolongation of Bleeding Time in Mice Groups of 10 male ICR mice (Charles River Japan Inc.) were used in the experiment. Test compound suspended in 5% gum arabic solution was orally administered for 3 days (48, 24 and 4 hours before the experiment). Each mouse was placed in a retainer, and the tail was transected at 5 mm from the tip, and then the tail (2 cm) was immersed in saline solution warmed at 37° C. Bleeding time was defined as the interval between the time of transection until bleeding stopped over a 15 seconds period. Bleeding times beyond 5 minutes were recorded as 5 minutes (300 seconds). Results were expressed as ratios of bleeding times of test compound-treated to non-treated (control) groups in which mice received 5% gum arabic solution.

In another experiment the test system is Human Platelets. The experiment can be described thus: Test 3: Antiaggregatory Action in Human Platelets (PRP, ADP-induced aggregation). The format is cell-based. The conditions noted are these: Platelet, 37° C.; for inhibition at 10 µg/mL: 10 μg/ml; for inhibition at 30 µg/mL: 30 μg/ml. The procedure: Antiaggregatory Action in Human Platelets
Platelet aggregation was measured using an automatic platelet aggregometer (PAM-8C, Mebanix) by the method of G.V.R. Born (Nature, 194, 927-929 (1962)) with a slight modification. Blood was collected from the antecubital vein of healthy volunteers who had not taken any medications for 2 weeks using 3.8% sodium citrate as an anticoagulant (1/9 volume of blood). Platelet-rich plasma (PRP) was obtained by centrifugation (CR5DL, Hitachi) at 200×g for 15 minutes at room temperature. Platelet-poor plasma (PPP) was obtained by further centrifugation of the remained blood at 2000×g for 10 minutes at room temperature. The number of platelets in PRP was measured by an automatic hematology analyzer (K-1000, Toa Iyo Denshi), and adjusted to 3×10^8 /ml using PPP. PRP prepared as described above was used for the platelet aggregation experiment. PRP (0.24 ml) was added to the cuvette and set in the platelet aggregometer. After pre-incubation for 1.5 minutes at 37° C., 0.01 ml of 0.25 mM ADP were added to the cuvette to initiate platelet aggregation. Platelet aggregation was monitored for 10 minutes.
Antiaggregatory action of test compound was expressed as inhibition (%) of aggregation comparing platelet aggregation of test compound to that of control (without addition of test compound).

Usually inhibition stands for the relative decrease from the control value, in per cent.

Where a name gives a salt, the structure may show the parent alone.

Consider `CC(=O)SC1CCN(C(C(=O)C2CC2)c2ccccc2F)CC1` (stereo not drawn) [Example 1(a), 4-Acetylthio-1-(α-cyclopropylcarbonyl-2-fluorobenzyl)piperidine], for which, in the experiment with platelet aggregation, the inhibition at 10 mg/kg stood at 5.7% and the inhibition at 30 mg/kg came out at 23.3%. Further, the “bleeding time extending ratio” value in the experiment with male ICR mice (10 mg/kg) stood at 1.06. Further, the “bleeding time extending ratio” value with male ICR mice (30 mg/kg) worked out at 2.06.

Turning to `CCOC(=O)/C=C1\CN(C(C(=O)C2CC2)c2ccccc2F)CCC1SC(C)=O` (stereo not drawn) [Example 10(a), (E)-4-Acetylthio-1-(α-cyclopropylcarbonyl-2-fluorobenzyl)-3-ethoxycarbonylmethylidenepiperidine], in the experiment with platelet aggregation, the inhibition at 10 mg/kg is 88.6% and the inhibition at 30 mg/kg is 97.2%. In addition, the “bleeding time extending ratio” value in the experiment with male ICR mice (10 mg/kg) was above 2.75. Further, the “bleeding time extending ratio” value with male ICR mice (30 mg/kg) is above 2.75.

On to `CCOC(=O)/C=C1\CN(C(C(=O)OC)c2ccccc2Cl)CCC1SC(C)=O` (stereo not drawn) [Example 13, (E)-4-Acetylthio-1-(2-chloro-α-methoxycarbonylbenzyl)-3-ethoxycarbonylmethylidenepiperidine], for which the “bleeding time extending ratio” value in the experiment on male ICR mice (10 mg/kg) and in the experiment on male ICR mice (30 mg/kg) was above 2.75 each time.

As for `CC(=O)SC1CCN(C(C(=O)C2CC2)c2ccccc2F)C/C1=C\C(=O)N(C)C` (stereo not drawn) [Example 15(a), (E)-4-Acetylthio-1-(α-cyclopropylcarbonyl-2-fluorobenzyl)-3-(N,N-dimethylcarbamoyl)methylidenepiperidine], in the experiment with platelet aggregation, the inhibition at 10 mg/kg turned out to be 18.6% and the inhibition at 30 mg/kg turned out to be 95.9%. The “bleeding time extending ratio” value in the experiment on male ICR mice (10 mg/kg) came to 2.53. Also, the “bleeding time extending ratio” value in the experiment on male ICR mice (30 mg/kg) is above 2.75.

In the case of `Cl.O=C(C1CC1)C(c1ccccc1F)N1CCC(S)CC1` (stereo not drawn) [Example 1(b), 1-(α-Cyclopropylcarbonyl-2-fluorobenzyl)-4-mercaptopiperidine hydrochloride], in the experiment with male ICR mice (30 mg/kg), the “bleeding time extending ratio” value is listed as 1.46. In addition, in the experiment on Human Platelets, the inhibition at 10 µg/mL turned out to be 48.6% and the inhibition at 30 µg/mL was found to be 70.6%.

`CCCC(=O)SC1CCN(C(C(=O)C2CC2)c2ccccc2F)CC1` (stereo not drawn) [Example 18, 4-Butyrylthio-1-(α-cyclopropylcarbonyl-2-fluorobenzyl)piperidine] showed an inhibition at 30 mg/kg with platelet aggregation of 18.3%. For the same compound, the “bleeding time extending ratio” value is on record as 1.45 with male ICR mice (10 mg/kg) and 2.57 in the experiment on male ICR mice (30 mg/kg).

On to `COC(=O)C(c1ccccc1F)N1CCC(SC(=O)c2ccccc2)CC1` (stereo not drawn) [Example 28, 4-Benzoylthio-1-(2-fluoro-α-methoxycarbonylbenzyl)piperidine], for which, in the experiment on platelet aggregation, the inhibition at 30 mg/kg was 39.6%. Also, the entries for the “bleeding time extending ratio” value in the experiment on male ICR mice (10 mg/kg) and in the experiment with male ICR mice (30 mg/kg) were 1.24 and 2.16, respectively.

Regarding `O=C(O)/C=C1/CN(C(C(=O)C2CC2)c2ccccc2F)CCC1S` (stereo not drawn) [Example 12, (Z)-1-(α-Cyclopropylcarbonyl-2-fluorobenzyl)-3-carboxymethylidene-4-mercaptopiperidine trifluoroacetate], in the experiment on Human Platelets, the inhibition at 10 µg/mL worked out at 41.2% and the inhibition at 30 µg/mL is 68.9%.
